This experiment has as its system BDF1 mice, P388 leukemia ip, median survival T/C. The experiment in a line: NCI In Vivo Anticancer Drug Screen. Data for tumor model P388 Leukemia (intraperitoneal) in B6D2F1 (BDF1) mice. Conditions: endpoint: median survival time, higher = longer survival. An outline of the steps:
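Antitumour effect was judged in vivo: survival in drug-treated mice, normalised to that of vehicle-dosed controls, gives the reported T/C.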

[1] abbreviates: dose: 50.0 mg/kg/injection, schedule: Q01DX009 (ip), vehicle: saline with Tween-80.
[2] abbreviates: dose: 100.0 mg/kg/injection, schedule: Q01DX009 (ip), vehicle: saline with Tween-80.
Where [3] appears, read: dose: 100.0 mg/kg/injection, schedule: Q01DX009 (ip), vehicle: Klucel (hydroxypropylcellulose) (HPC).
The mark [4] stands for this setting: dose: 100.0 mg/kg/injection, schedule: Q04DX003 (ip), vehicle: Klucel (hydroxypropylcellulose) (HPC).
Setting [5] is: dose: 200.0 mg/kg/injection, schedule: Q01DX009 (ip), vehicle: Klucel (hydroxypropylcellulose) (HPC).
The mark [6] stands for this setting: dose: 200.0 mg/kg/injection, schedule: Q04DX003 (ip), vehicle: Klucel (hydroxypropylcellulose) (HPC).
The mark [7] stands for this setting: dose: 400.0 mg/kg/injection, schedule: Q01DX009 (ip), vehicle: Klucel (hydroxypropylcellulose) (HPC).
[8] abbreviates: dose: 400.0 mg/kg/injection, schedule: Q04DX003 (ip), vehicle: Klucel (hydroxypropylcellulose) (HPC).
[9] abbreviates: dose: 100.0 mg/kg/injection, schedule: Q04DX003 (ip), vehicle: saline with Tween-80.
Setting [10] is: dose: 200.0 mg/kg/injection, schedule: Q01DX009 (ip), vehicle: saline with Tween-80.
Setting [11] is: dose: 200.0 mg/kg/injection, schedule: Q04DX003 (ip), vehicle: saline with Tween-80.
Where [12] appears, read: dose: 25.0 mg/kg/injection, schedule: Q01DX009 (ip), vehicle: saline.
The mark [13] stands for this setting: dose: 50.0 mg/kg/injection, schedule: Q01DX009 (ip), vehicle: saline.
Where [14] appears, read: dose: 100.0 mg/kg/injection, schedule: Q01DX009 (ip), vehicle: saline.

Values joined by “and” are separate entries in the source; they are usually repeats but may differ in a detail not shown here. Equal entries are not always repeated. Inconclusive results and toxic doses are left out.

Take `CC[C@@]12CCCN3CC[C@]4(c5cccc(OC)c5N(C(C)=O)[C@@H]4CC1)[C@H]32`: the T/C was 100 % of control (dose: 6.25 mg/kg/injection, schedule: Q01DX009 (ip), vehicle: Klucel (hydroxypropylcellulose) (HPC)); 95 % of control (dose: 12.5 mg/kg/injection, schedule: Q01DX009 (ip), vehicle: Klucel (hydroxypropylcellulose) (HPC)); 104 % of control (dose: 25.0 mg/kg/injection, schedule: Q01DX009 (ip), vehicle: Klucel (hydroxypropylcellulose) (HPC)); 108 % of control (dose: 50.0 mg/kg/injection, schedule: Q01DX001 (ip), vehicle: Klucel (hydroxypropylcellulose) (HPC)); 116 % of control (dose: 100.0 mg/kg/injection, schedule: Q01DX001 (ip), vehicle: Klucel (hydroxypropylcellulose) (HPC)); 91 % of control (dose: 200.0 mg/kg/injection, schedule: Q01DX001 (ip), vehicle: Klucel (hydroxypropylcellulose) (HPC)).
Consider `NC(=O)NN=C1CCC(c2ccccc2)CC1` (centres undefined), for which the T/C under setting [1] is 112 % of control and the T/C under setting [2] is 112 % of control.
In the case of `CC(CC(=O)O)(CC(=O)O)c1ccccc1`, the T/C under setting [3] is 100 % of control; the T/C under setting [4] was 104 % of control; the T/C under setting [5] is 95 % of control; the T/C under setting [6] was 95 % of control; the T/C under setting [7] is 100 % of control; the T/C under setting [8] is 90 % of control.
In the case of `OCCOc1c(Cl)cc(Cl)cc1Cl`, the T/C is 100 % of control under setting [1]; 100 % of control under setting [2]; 113 % of control under setting [9]; 100 % of control under setting [10]; 100 % of control under setting [11].
For `O=C1c2ccccc2C(=O)c2c(Sc3ccccc3)cccc21`, under setting [10], the T/C was 95 % of control.
For `CC12CCC(O)CC1CCC1C2CCC2(C)C(C3=CC(=O)OC3)CCC12O` (centres undefined), the T/C is, setting by setting: (dose: 2.0 mg/kg/injection, schedule: Q01DX009 (ip), vehicle: Klucel (hydroxypropylcellulose) (HPC)) 90 % of control; (dose: 2.0 mg/kg/injection, schedule: Q01DX010 (ip), vehicle: carboxymethylcellulose (CMC)) 95 % of control; (dose: 4.0 mg/kg/injection, schedule: Q01DX009 (ip), vehicle: Klucel (hydroxypropylcellulose) (HPC)) 105 % of control; (dose: 8.0 mg/kg/injection, schedule: Q01DX009 (ip), vehicle: Klucel (hydroxypropylcellulose) (HPC)) 112 % of control; (dose: 8.0 mg/kg/injection, schedule: Q01DX010 (ip), vehicle: carboxymethylcellulose (CMC)) 104 % of control.
For the compound `c1ccc2c(c1)nnn1c3cnccc3nc21`, for the setting “dose: 6.25 mg/kg/injection, schedule: Q01DX009 (ip), vehicle: saline with Tween-80”, the T/C was 120 % of control.
Take `NC(=S)N/N=C/c1nccc2ccccc12`: the T/C is, setting by setting: (dose: 18.8 mg/kg/injection, schedule: Q01DX009 (ip), vehicle: saline with Tween-80) 158 % of control; (dose: 37.5 mg/kg/injection, schedule: Q01DX009 (ip), vehicle: saline with Tween-80) 185 % of control; (dose: 75.0 mg/kg/injection, schedule: Q01DX009 (ip), vehicle: saline with Tween-80) 235 % of control; (dose: 300.0 mg/kg/injection, schedule: Q01DX009 (ip), vehicle: saline with Tween-80) 91 % of control.
`Cc1nnc(NC(=O)CCl)s1`: the T/C is 95 % of control and 100 % of control and 113 % of control under setting [12]; 113 % of control (dose: 35.0 mg/kg/injection, schedule: Q01DX009 (ip), vehicle: saline); 100 % of control under setting [13]; 106 % of control under setting [3]; 100 % of control and 105 % of control under setting [14]; 111 % of control under setting [5].
For the compound `CCOC(=O)C(Cc1ccc(N(CCCl)CCCl)cc1)NC(=O)C(N)CO` (centres undefined), the T/C is, setting by setting: (dose: 5.0 mg/kg/injection, schedule: Q04DX003 (ip), vehicle: water) 157 % of control; (dose: 10.0 mg/kg/injection, schedule: Q04DX003 (ip), vehicle: water) 263 % of control; (dose: 20.0 mg/kg/injection, schedule: Q04DX003 (ip), vehicle: water) 263 % of control; (dose: 40.0 mg/kg/injection, schedule: Q04DX003 (ip), vehicle: water) 105 % of control.
As to `COc1cc2c[n+](C)c3c4cc5c(cc4ccc3c2cc1OC)OCO5` (tested in a mixture with another compound), the T/C is 124 % of control (dose: 1.25 mg/kg/injection, schedule: Q01DX009 (ip), vehicle: water); 163 % of control and 166 % of control (dose: 10.0 mg/kg/injection, schedule: Q01DX009 (ip), vehicle: saline); 160 % of control (dose: 10.0 mg/kg/injection, schedule: Q01DX009 (ip), vehicle: water); 172 % of control and 188 % of control and 203 % of control (dose: 20.0 mg/kg/injection, schedule: Q01DX009 (ip), vehicle: saline); 150 % of control (dose: 20.0 mg/kg/injection, schedule: Q01DX009 (ip), vehicle: water); 174 % of control and 215 % of control (dose: 40.0 mg/kg/injection, schedule: Q01DX009 (ip), vehicle: saline). For the same compound, the T/C (dose: 40.0 mg/kg/injection, schedule: Q01DX009 (ip), vehicle: water) was 110 % of control; the T/C (dose: 80.0 mg/kg/injection, schedule: Q01DX009 (ip), vehicle: saline) is 172 % of control and 188 % of control.
For the compound `CC(=O)Nc1ccc(N=Nc2c(C)nn(C(=N)N)c2C)cc1`, the T/C is, setting by setting: under setting [12], 97 % of control; under setting [13], 97 % of control.
For the compound `C[S+](C)N(c1ccc(Cl)cc1)C(C)(C)C`, the T/C is, setting by setting: (dose: 25.0 mg/kg/injection, schedule: Q01DX001 (ip), vehicle: saline) 104 % of control; (dose: 50.0 mg/kg/injection, schedule: Q01DX001 (ip), vehicle: saline) 111 % of control.
As to `C/C(=C\n1ccccc1=N)C(=O)c1ccc(F)cc1`, the T/C was 95 % of control under setting [4], 90 % of control under setting [6] and 104 % of control under setting [8].
With `COc1ccc(NC(=O)Nc2c(Oc3ccc(Cl)cc3)ccc(Cl)c2S(=O)(=O)O)cc1Cl`, the T/C is, setting by setting: under setting [12], 109 % of control; under setting [13], 86 % of control; under setting [14], 104 % of control.
Take `CC1CCC2C(C1)N(C(C)C)OC2(C)C` (centres undefined): the T/C by setting is: under setting [9], 109 % of control; under setting [11], 100 % of control; (dose: 400.0 mg/kg/injection, schedule: Q04DX003 (ip), vehicle: saline with Tween-80) 90 % of control.
With `Nc1ccc(CCc2ccc(N)cc2[N+](=O)[O-])c([N+](=O)[O-])c1`, the T/C is, setting by setting: under setting [3], 100 % of control; under setting [5], 100 % of control; under setting [7], 100 % of control.
`CCOC(=O)C(=O)CC1=CC=CC2=NC(=O)CCN12`: the T/C is 109 % of control (dose: 66.0 mg/kg/injection, schedule: Q01DX001 (ip), vehicle: saline with Tween-80); 100 % of control (dose: 100.0 mg/kg/injection, schedule: Q01DX001 (ip), vehicle: saline with Tween-80); 100 % of control (dose: 150.0 mg/kg/injection, schedule: Q01DX001 (ip), vehicle: saline with Tween-80); 100 % of control (dose: 200.0 mg/kg/injection, schedule: Q01DX001 (ip), vehicle: saline with Tween-80).
For `CCOCCOCCOc1nc(F)c(Cl)cc1Cl`, the T/C by setting is: under setting [9], 100 % of control; under setting [11], 118 % of control.
For `Cc1ncc([N+](=O)[O-])n1CCSC(=N)N` the same measures were 105 % of control and 105 % of control.
Regarding `NS(=O)(=O)c1ccc(NC2OCC(O)C(O)C2O)cc1` (centres undefined), the T/C is, setting by setting: under setting [2], 95 % of control; under setting [10], 90 % of control; (dose: 400.0 mg/kg/injection, schedule: Q01DX009 (ip), vehicle: saline with Tween-80) 100 % of control.
Consider `CNC1=C(N2CC2)C(=O)C(NC)=C(N2CC2)C1=O`, for which the T/C was 159 % of control (dose: 0.05 mg/kg/injection, schedule: Q01DX009 (ip), vehicle: saline); 151 % of control and 169 % of control (dose: 0.1 mg/kg/injection, schedule: Q01DX009 (ip), vehicle: saline); 195 % of control (dose: 0.2 mg/kg/injection, schedule: Q01DX009 (ip), vehicle: saline).
Take `COC(=O)C1C(O)CCC2CN3CCc4c([nH]c5ccccc45)C3CC21` (centres undefined): the T/C is, setting by setting: under setting [12], 88 % of control; under setting [1], 105 % of control; under setting [13], 88 % of control; under setting [2], 119 % of control; under setting [14], 110 % of control; (dose: 200.0 mg/kg/injection, schedule: Q01DX009 (ip), vehicle: saline) 118 % of control.

The record behind these values is PubChem BioAssay AID328 (DTP/NCI, 2004).
